Measurements published in patent US20240398783A1, “Compounds and Pharmaceutical Compositions Comprising Inhibitors of Amyloid Peptide Interactions with Glycosaminoglycans, Methods of Treatment and Use Thereof” (Gismo Therapeutics, Inc., priority 2021, published 2024).
pIC50: −log10 of the molar value. Where a name gives a salt, the structure may show the parent alone. Read-outs that look alike come from different tables or passages of the source.

Key:
[1] = target: Alpha-Synuclein Protofibril binding to heparin (HS-GAG) (Homo sapiens, UniProt P37840); assay: Inhibition of alpha-synuclein protofibril binding to immobilized heparin-BSA (ELISA); parameters: species or system porcine; conditions: for inhibition at 30 µM: read-out: Alpha-Synuclein/Heparin Activity (% inhibition class)
Method: (§1) Porcine intestinal mucosa heparin conjugated to Bovine Serum Albumin (Heparin-BSA) was prepared as described (Najjam, S. et al. 1997, Cytokine 12, 1013-1022). Heparin is a sulfated HS-GAG and is commonly used as a HS-GAG in biochemical and binding assays (Lindahl, U. and Kjellen, L. (2013) ibid). Heparin-BSA at 0.01 mg/ml in Phosphate Buffered Saline (PBS; pH 7.4) was added to a 96 well polystyrene ELISA plate (NUNC Cat. No. 449824; 100 μl per well) and incubated Over Night (ON) at 4 degrees Celsius. For negative controls, ELISA plates were coated with BSA instead of Heparin-BSA, using the same procedure. Following the incubation, the plate was washed consecutively, by immersion, with de-ionized water and PBS (pH 7.4). The ELISA plate was then blocked with nonfat milk (2%, 200 μl per well) for 2 hours at Room Temperature (RT) with gentle shaking. Following blocking, the plate was washed with de-ionized water then PBS (pH 7.4). GBAPs were dissolved and diluted in PBS (pH 6.5, supplemented with 0.1% BSA) at desired concentrations, added to the ELISA plates containing immobilized Heparin-BSA (100 μl per well) and incubated for 2 hours at RT with gentle shaking. Following incubation, the plate was washed with de-ionized water and three times with PBS (pH 6.5) plus Tween. Bound GBAP was detected by a monoclonal antibody specific for that GBAP, followed by incubation with secondary antibody conjugated to horseradish peroxidase (HRP). Antibody was diluted in PBS (pH 6.5 supplemented with 1% BSA). Following each incubation with antibody, the plate was washed with de-ionized water and three times with PBS (pH 6.5) wash buffer containing 0.1% Tween. The peroxidase substrate chromogen, TMB (Dako Cat. No. S1599) was added (100 μl per well) to the ELISA plate and incubated at room temperature. After 5 minutes ELISA Stop Solution (hydrochloric acid 1N, sulfuric acid 3N) was added (100 μl per well) to stop the peroxidase catalyzed colorimetric reaction. The Optical Density of the samples was measured at 450 nm using an ELISA plate reader (BioTek Synergy H1). Following color development, the % inhibition compared to control (BSA-coated plates) was determined. IC-50s were calculated using GraphPad Prism software.
The assay was performed as described in Example 43, with the following modifications. Following to coating the plates with Heparin-BSA, plates were washed as described. The compounds were dissolved in DMSO at 10 mM final concentration and further diluted prior to assay. DMSO concentration in the screening well was up to […]. Individual compounds were co-incubated with alpha-synuclein on plates containing immobilized heparin. Alpha-synuclein purchased from rPeptide (Cat. No. S1001) was used to prepare protofibrils as described in Ihse et al., 2017. Alpha-synuclein was dissolved in PBS (pH7.4) to a concentration of 140 μM (˜2 mg/ml), and incubated for 7 days at 37° C. with rotary agitation (400 rpm). Resulting fibrils were sonicated for 10 minutes in ultrasonic water bath, quickly frozen and kept in aliquots at −80 degrees Celsius. Protofibrillar alpha-synuclein diluted in PBS (pH 6.5, supplemented with BSA, 0.1%) was added to the ELISA plate (100 μl per well) and incubated for 2 hours at RT with gentle shaking. Following the incubation, the plate was washed with de-ionized water and three times with PBS (pH 6.5) plus Tween. Bound Alpha-synuclein was detected by Anti-Alpha-synuclein Monoclonal Antibody 211 (Santa Cruz Cat. No. sc-12767), followed by secondary anti-IgG antibody conjugated to HRP (R&D System, Cat. No. HAF007). Following to color development with TMB, as described in Example 43, the Optical Density of the samples was measured at 450 nm using an ELISA plate reader. Following color development, the % inhibition compared to control (no compound, DMSO control) for every compound was determined.
An example of inhibition curve is shown in FIG. 1 for Inhibitor Compounds 22 and 24. […]

[2] = target: T1, SAA binding to heparin (HS-GAG) (Homo sapiens, UniProt P0DJI8); assay: Inhibition of SAA binding to immobilized heparin-BSA (ELISA); parameters: species or system porcine
T1 sequence (P0DJI8 19-122): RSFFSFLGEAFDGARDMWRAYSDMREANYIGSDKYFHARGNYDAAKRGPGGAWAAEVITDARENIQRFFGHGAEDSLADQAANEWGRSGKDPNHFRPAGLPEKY
Method: as §1
The assay was performed as described in Example 43, with the following modifications. Following to coating the plates with Heparin-BSA, plates were washed as described. The compounds were dissolved in DMSO at 10 mM final concentration and further diluted prior to assay. DMSO concentration in the screening well was up to 2%. Individual compounds were co-incubated with SAA on plates containing immobilized heparin. Serum amyloid A (SAA) from PeProtech (NJ, USA, Cat. No. 300-53) was dissolved in DMSO, quickly frozen and kept in aliquots at −80 degrees Celsius. SAA dissolved in Tris buffer (pH 6.5, supplemented with BSA, 0.1%) was added to the ELISA plate (100 μl per well) and incubated for 2 hours at RT with gentle shaking. Following the incubation, the plate was washed with de-ionized water and three times with Tris Buffered Saline (TBS, pH 6.5) plus Tween. Bound SAA was detected by Anti-SAA Monoclonal Antibody (R&D System Cat. No. MAB30192), followed by secondary anti-IgG antibody conjugated to HRP (R&D System, Cat. No. HAF007). Antibody was diluted in TBS antibody buffer (pH6.5 supplemented with 1% BSA). Following each incubation with antibody, the plate was washed with de-ionized water and three times with TBS (pH6.5) wash buffer containing 0.1% Tween. Following to color development with TMB, as described in Example 43, the Optical Density of the samples was measured at 450 nm using an ELISA plate reader. Following color development, the % inhibition compared to control (no compound, DMSO control) for every compound was determined.
As described in Example 43, Heparin in the form of Heparin-BSA conjugate is used as a source of HS-GAG. For each compound IC-50 value in SAA—heparin-BSA binding assay is shown in μM (micromolar). […]

[3] = read-out: Serum Amyloid A/Heparin Activity (% inhibition class)
[4] = read-out: Serum Amyloid A/Heparin Activity (IC-50); SAA, heparin-BSA
[5] = 30 μM compound, alpha-synuclein protofibrils, heparin-BSA
[6] = 30 μM compound; SAA, heparin-BSA; read-out: Serum Amyloid A/Heparin Activity (% inhibition class)
[7] = alpha-synuclein protofibrils, heparin-BSA, read-out: Alpha-Synuclein/Heparin Activity (IC-50)

Row | SMILES | inhibition at 30 µM [1] [%] | inhibition at 30 µM [2, 3] [%] | other results
1 | C/C(=N\Nc1ncnc2cc(Cl)ccc12)c1cccc(N2CCN(C)CC2)c1 [Compound 30, 7-chloro-4-(2-(1-(3-(4-methylpiperazin-1-yl)phenyl)ethylidene)hydrazineyl)quinazoline] | > 30 | < 30 | 
2 | CN1CCN(c2cc(Nc3ccnc4cc(Cl)ccc34)ccn2)CC1 [Compound 20, 7-chloro-N-(2-(4-methylpiperazin-1-yl)pyridin-4-yl)quinolin-4-amine] | < 30 | > 30 | 
3 | CC(=NNc1ccnc2cc(Cl)ccc12)c1ccc(-n2ccnc2)cc1 [Compound 36, 4-(2-(1-(4-(1H-imidazol-1-yl)phenyl)ethylidene)hydrazineyl)-7-chloroquinoline phosphate] |  |  | pIC50 ([1]; Alpha-Synuclein/Heparin Activity (IC-50), alpha-synuclein protofibrils, heparin-BSA): 5.38; pIC50 [2, 4]: 4.66
4 | CCN(CC)Cc1cccc(Nc2ccnc3cc(Cl)ccc23)c1 [Compound 42, 7-chloro-N-(3-((diethylamino)methyl)phenyl)quinolin-4-amine] |  |  | inhibition at 30 µM [1, 5]: < 30%; inhibition at 30 µM [2, 6]: < 30%
5 | COc1ccc2c(NN=Cc3ccc(-n4ccnc4)c(C)c3)ccnc2c1 [Compound 12, 4-(2-(4-(1H-imidazol-1-yl)-3-methylbenzylidene)hydrazineyl)-7-methoxyquinoline] | < 30 |  | pIC50 [2, 4]: 4.50
6 | C[n+]1ccc(/C=N\Nc2ccnc3ccccc23)cc1 [Compound 9, (Z)-1-methyl-4-((2-(quinolin-4-yl)hydrazono)methyl)pyridin-1-ium iodide] |  |  | inhibition at 30 µM [1, 5]: < 30%; inhibition at 30 µM [2, 6]: < 30%
7 | CC(=NNc1ccnc2cc(Cl)ccc12)c1ccc(-n2cc[n+](C)c2)nc1 [Compound 23, 1-(5-(1-(2-(7-chloroquinolin-4-yl)hydrazineylidene)ethyl)pyridin-2-yl)-3-methyl-1H-imidazol-3-ium iodide] | < 30 | < 30 | 
8 | C/C(=N\Nc1ncnc2cc(Cl)ccc12)c1ccc(-n2cncn2)nc1 [Compound 32, (E)-4-(2-(1-(6-(1H-1,2,4-triazol-1-yl)pyridin-3-yl)ethylidene)hydrazineyl)-7-chloroquinazoline] | > 30 | > 30 | 
9 | O=S1(=O)CCN(Cc2ccc(/C=N/Nc3ccnc4cc(F)ccc34)cc2)CC1 [Compound 10, (E)-4-(4-((2-(7-fluoroquinolin-4-yl)hydrazono)methyl)benzyl)thiomorpholine 1,1-dioxide] |  |  | inhibition at 30 µM [1, 5]: < 30%; inhibition at 30 µM [2, 6]: < 30%
10 | C/C(=N\Nc1ncnc2cc(Cl)ccc12)c1ccc(-n2cc(C)nc2C)nc1 [Compound 18, (E)-7-chloro-4-(2-(1-(6-(2,4-dimethyl-1H-imidazol-1-yl)pyridin-3-yl)ethylidene)hydrazineyl)quinazoline phosphoric acid salt] |  |  | pIC50 [1, 7]: 5.77; pIC50 ([2]; SAA, heparin-BSA; read-out: Serum Amyloid A/Heparin Activity (IC-50)): 4.65
11 | C/C(=N\Nc1ncnc2cc(Cl)ccc12)c1ccc(-n2cc(C)nc2C)nc1 [Compound 27, (E)-7-chloro-4-(2-(1-(6-(2,4-dimethyl-1H-imidazol-1-yl)pyridin-3-yl)ethylidene)hydrazineyl)quinazoline hydrochloride] |  |  | pIC50 [1, 7]: 5.71; pIC50 ([2]; SAA, heparin-BSA; hydrochloride; read-out: Serum Amyloid A/Heparin Activity (IC-50)): 4.61
12 | Fc1ccc2c(N/N=C/c3ccc(-n4ccnc4)cc3)ccnc2c1 [Compound 5, (E)-4-(2-(4-(1H-imidazol-1-yl)benzylidene)hydrazinyl)-7-fluoroquinoline] | < 30 |  | pIC50 [2, 4]: 4.62
13 | Cc1cn(-c2ccc(Nc3cncc4cc(Cl)ccc34)cn2)c(C)n1 [Compound 37, 7-chloro-N-(6-(2,4-dimethyl-1H-imidazol-1-yl)pyridin-3-yl)isoquinolin-4-amine phosphoric acid salt] | < 30 | < 30 | 
14 | C/C(=N\Nc1ncnc2cc(F)ccc12)c1ccc(-n2cc[n+](C)c2)nc1 [Compound 26, (E)-1-(5-(1-(2-(7-fluoroquinazolin-4-yl)hydrazineylidene)ethyl)pyridin-2-yl)-3-methyl-1H-imidazol-3-ium phosphoric acid salt] | > 30 | < 30 | 
